Patent US20060079555A1, “Diarylmethylidene piperidine derivatives, preparations thereof and uses thereof” (AstraZeneca AB, priority 2003, published 2006)

target: T1, human δ receptor (Homo sapiens, UniProt P41143); experiment: GTP[γ]35S binding functional assay, human δ receptor; type: biochemical; details: Emax in relation to the standard δ agonist SNC80
T1 construct: expressed in transfected cells
Protocol: The agonist activity of the compounds is measured by determining the degree to which the compounds receptor complex activates the binding of GTP to G-proteins to which the receptors are coupled. In the GTP binding assay, GTP[γ]^35S is combined with test compounds and membranes from HEK-293S cells expressing the cloned human opioid receptors or from homogenised rat and mouse brain. Agonists stimulate GTP[γ]^35S binding in these membranes. The EC50 and Emax values of compounds are determined from dose-response curves. Right shifts of the dose response curve by the delta antagonist naltrindole are performed to verify that agonist activity is mediated through delta receptors. The Emax values were determined in relation to the standard δ agonist SNC80, i.e., higher than 100% is a compound that have better efficacy than SNC80.

T1 sequence (P41143 whole entry): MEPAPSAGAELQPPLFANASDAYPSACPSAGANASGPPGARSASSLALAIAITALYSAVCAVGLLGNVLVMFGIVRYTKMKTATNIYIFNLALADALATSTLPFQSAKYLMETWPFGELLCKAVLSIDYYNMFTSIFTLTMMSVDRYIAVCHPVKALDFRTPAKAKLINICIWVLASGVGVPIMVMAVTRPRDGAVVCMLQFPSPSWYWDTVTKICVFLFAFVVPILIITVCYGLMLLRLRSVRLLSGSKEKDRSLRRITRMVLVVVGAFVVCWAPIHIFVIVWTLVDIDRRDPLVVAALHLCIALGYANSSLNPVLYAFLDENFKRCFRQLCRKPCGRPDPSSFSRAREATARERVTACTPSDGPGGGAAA

SMILES	Emax
CCN(CC)C(=O)c1ccc(C(=C2CCNCC2)c2cccc(C(=O)N[C@H](C)c3ccc(C)cc3)c2)cc1 [Compound 9, 4-[[3-({[(1R)1-(4-methylphenyl)ethyl]amino}carbonyl)phenyl](piperidin-4-ylidene)methyl]-N,N-diethylbenzamide]	69 to 105%
CCN(CC)C(=O)c1ccc(C(=C2CCNCC2)c2cccc(C(=O)N3CCCC3)c2)cc1 [Compound 16, N,N-diethyl-4-{piperidin-4-ylidene[3-(pyrrolidin-1-ylcarbonyl)phenyl]methyl}benzamide]	69 to 105%
CCN(CC)C(=O)c1ccc(C(=C2CCNCC2)c2cccc(C(=O)NCC3CCCCC3)c2)cc1 [Compound 6]	69 to 105%
CCN(CC)C(=O)c1ccc(C(=C2CCNCC2)c2cccc(C(=O)Nc3ccccc3)c2)cc1 [Compound 1, 4-[[3-(anilinocarbonyl)phenyl](piperidin-4-ylidene)methyl]-N,N-diethylbenzamide]	69 to 105%
CCN(CC)C(=O)c1ccc(C(=C2CCNCC2)c2cccc(C(=O)N3CCCCC3)c2)cc1 [Compound 15]	69 to 105%
CCN(CC)C(=O)c1ccc(C(=C2CCNCC2)c2cccc(C(=O)NCCc3ccccc3)c2)cc1 [Compound 3, 4-[(3-{[(2-phenylethyl)amino]carbonyl}phenyl)(piperidin-4-ylidene)methyl]-N,N-diethylbenzamide]	69 to 105%
CCN(CC)C(=O)c1ccc(C(=C2CCNCC2)c2cccc(C(=O)NC3CCCC3)c2)cc1 [Compound 4, 4-[{3-[(cyclopentlamino)carbonyl]phenyl}(piperidin-4-ylidene)methyl]-N,N-diethylbenzamide]	69 to 105%
CCN(CC)C(=O)c1ccc(C(=C2CCNCC2)c2cccc(C(=O)NCc3ccccc3)c2)cc1 [Compound 2, 4-[{3-[(benzylamino)carbonyl]phenyl}(piperidin-4-ylidene)methyl]-N,N-diethylbenzamide]	69 to 105%
CCN(CC)C(=O)c1ccc(C(=C2CCNCC2)c2cccc(C(=O)Nc3nc(C)cs3)c2)cc1 [Compound 10, 4-[(3-{[(4-methyl-1,3-thiazol-2-yl)amino]carbonyl}phenyl)(piperidin-4-ylidene)methyl]-N,N-diethylbenzamide]	69 to 105%
CCN(CC)C(=O)c1ccc(C(=C2CCNCC2)c2cccc(C(=O)Nc3ccc(C)nc3C)c2)cc1 [Compound 11]	69 to 105%
CCN(CC)C(=O)c1ccc(C(=C2CCNCC2)c2cccc(C(=O)NCc3ccccc3Cl)c2)cc1 [Compound 7, 4-[(3-{[(2-chlorobenzyl)amino]carbonyl}phenyl)(piperidin-4-ylidene)methyl]-N,N-diethylbenzamide]	69 to 105%
CCN(CC)C(=O)c1ccc(C(=C2CCNCC2)c2cccc(C(=O)NCC(C)C)c2)cc1 [Compound 12, 4-[{3-[(isobutylamino)carbonyl]phenyl}(piperidin-4-ylidene)methyl]-N,N-diethylbenzamide]	69 to 105%
CCN(CC)C(=O)c1ccc(C(=C2CCNCC2)c2cccc(C(=O)NC3CCCCC3)c2)cc1 [Compound 5]	69 to 105%
CCN(CC)C(=O)c1ccc(C(=C2CCNCC2)c2cccc(C(=O)N(C)CCc3ccccc3)c2)cc1 [Compound 14, 4-[(3-{[methyl(2-phenylethyl)amino]carbonyl}phenyl)(piperidin-4-ylidene)methyl]-N,N-diethylbenzamide]	69 to 105%
CCC(CC)NC(=O)c1cccc(C(=C2CCNCC2)c2ccc(C(=O)N(CC)CC)cc2)c1 [Compound 13, 4-[(3{[(1-ethylpropyl)amino]carbonyl}phenyl)(piperidin-4-ylidene)methyl]-N,N-diethylbenzamide]	69 to 105%
CCN(CC)C(=O)c1ccc(C(=C2CCNCC2)c2cccc(C(=O)NCc3ccccc3F)c2)cc1 [Compound 8, 4-[(3-{[(2-fluorobenzyl)amino]carbonyl}phenyl)(piperidin-4-ylidene)methyl]-N,N-diethylbenzamide]	69 to 105%
